Earlier results in patent US20260258033A1, “2,7-Naphthyridine Compounds as MASTL Inhibitors” (Pfizer Inc., priority 2022, published 2026).

Tested on: breast cancer cells
Settings: in breast cancer cells; Kang et al., Pharmaceuticals 2021; read-out: cellular IC50; cited from earlier work

## N#CCc1ccc(Nc2nc(Nc3cc(C4CC4)[nH]n3)c3ccccc3n2)cc1 [MKI-2, 2-(4-((4-((5-cyclopropyl-1H-pyrazol-3-yl)amino)quinazolin-2-yl)amino)phenyl)acetonitrile]
  IC50: 143 nM
